Data published in paper PMC5856125 (Journal of the American Chemical Society, 2018).

Target: lipoteichoic acid synthase (LtaS) (Staphylococcus aureus, UniProt Q2G093)
Assay: LTA polymerization in proteoliposomes with purified LtaS, anti-LTA blot
Type: biochemical

Sequence of lipoteichoic acid synthase (LtaS) (Q2G093 whole entry): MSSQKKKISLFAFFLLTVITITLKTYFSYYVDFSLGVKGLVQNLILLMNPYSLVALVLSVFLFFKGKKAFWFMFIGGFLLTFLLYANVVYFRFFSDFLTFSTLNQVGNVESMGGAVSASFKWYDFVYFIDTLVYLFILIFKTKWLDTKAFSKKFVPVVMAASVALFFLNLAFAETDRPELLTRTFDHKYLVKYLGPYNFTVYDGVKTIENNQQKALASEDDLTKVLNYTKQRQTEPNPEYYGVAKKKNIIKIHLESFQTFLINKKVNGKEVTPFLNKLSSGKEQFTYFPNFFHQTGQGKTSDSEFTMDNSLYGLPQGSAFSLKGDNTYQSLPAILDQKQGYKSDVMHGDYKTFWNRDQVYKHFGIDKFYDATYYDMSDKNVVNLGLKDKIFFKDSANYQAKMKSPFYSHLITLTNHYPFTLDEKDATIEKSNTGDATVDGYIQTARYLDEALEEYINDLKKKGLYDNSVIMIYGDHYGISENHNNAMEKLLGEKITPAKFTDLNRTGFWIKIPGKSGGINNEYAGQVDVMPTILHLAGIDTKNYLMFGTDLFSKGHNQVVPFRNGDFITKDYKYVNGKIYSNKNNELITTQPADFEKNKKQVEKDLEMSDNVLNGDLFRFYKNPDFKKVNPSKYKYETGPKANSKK

Nc1c(/N=N/c2ccc(-c3ccc(/N=N/c4cc(S(=O)(=O)O)c5ccccc5c4N)cc3)cc2)cc(S(=O)(=O)O)c2ccccc12 [compound 1, Congo red]
IC50: ~2000 nM
